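Interpolation was linear, between the two tested concentrations surrounding the appropriate level; five concentrations were tested over 48 hours in 96-well plates. TGI: concentration producing complete growth inhibition.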
Legend:
Test in all cases: NCI-60 cell line screen, 48 h
[1] = test system: OVCAR-8 ovarian
[2] = test system: SNB-75 CNS
[3] = test system: OVCAR-5 ovarian
[4] = test system: SR leukemia
[5] = test system: 786-0 renal
[6] = test system: UACC-62 melanoma
[7] = test system: SK-MEL-28 melanoma
[8] = test system: ACHN renal
[9] = test system: LXFL 529 NSCLC
[10] = test system: M19-MEL melanoma
[11] = test system: HOP-92 NSCLC
[12] = test system: HOP-18 NSCLC
[13] = test system: OVCAR-3 ovarian
[14] = test system: HT29 colon
[15] = test system: DLD-1 colon
[16] = test system: U251 CNS
[17] = test system: SN12C renal
[18] = test system: SF-268 CNS
[19] = test system: HCT-15 colon
[20] = test system: M14 melanoma
[21] = test system: SNB-78 CNS
[22] = test system: MOLT-4 leukemia
[23] = test system: HCC-2998 colon
[24] = test system: DMS 273 small cell lung
[25] = test system: UACC-257 melanoma
[26] = test system: LOX IMVI melanoma
[27] = test system: SK-MEL-5 melanoma
[28] = test system: HCT-116 colon
[29] = test system: A498 renal
[30] = test system: NCI-H226 lung
[31] = test system: SK-OV-3 ovarian
[32] = test system: A549 NSCLC
[33] = test system: TK-10 renal
[34] = test system: NCI-H460 lung
[35] = test system: K-562 leukemia
[36] = test system: MALME-3M melanoma
[37] = test system: IGROV1 ovarian
[38] = test system: SF-539 CNS
[39] = test system: SK-MEL-2 melanoma
[40] = test system: HL-60(TB) leukemia
[41] = test system: XF 498 CNS
[42] = test system: RPMI-8226 leukemia
[43] = test system: KM12 colon
[44] = test system: CAKI-1 renal
[45] = test system: COLO 205 colon
[46] = test system: SW-620 colon
[47] = test system: EKVX NSCLC
[48] = test system: HOP-62 NSCLC
[49] = test system: SNB-19 CNS
[50] = test system: CCRF-CEM leukemia
[51] = test system: UO-31 renal
[52] = test system: DMS 114 small cell lung
[53] = test system: NCI-H522 lung
[54] = test system: NCI-H23 lung
[55] = test system: OVCAR-4 ovarian
[56] = test system: RXF-631 renal
[57] = test system: SF-295 CNS
[58] = test system: RXF 393 renal

For `Cn1ncc2c(Nc3ccc(Cl)cc3)c3ccccc3nc21`, the TGI [1] was 30.3 µM, the TGI [2] was 29.2 µM and the TGI [3] was 47.5 µM. The TGI [4] was greater than 100 µM, the TGI [5] was 32.4 µM and the TGI [6] was 31.6 µM. For the same compound, the TGI [7] was 29.7 µM, the TGI [8] was 55.9 µM and the TGI [9] was 34.7 µM. It also gave a TGI [10] of 37.2 µM, a TGI [11] of 39.1 µM and a TGI [12] of 69.5 µM. It also gave a TGI [13] of 46.2 µM, a TGI [14] of 27.1 µM and a TGI [15] of 30.3 µM. It also gave a TGI [16] of 29.3 µM, a TGI [17] of 58.3 µM and a TGI [18] of 51.5 µM. For the same compound, the TGI [19] was 40 µM, the TGI [20] was 28.3 µM and the TGI [21] was 74.6 µM. For the same compound, the TGI [22] was 63.2 µM, the TGI [23] was 39.7 µM and the TGI [24] was 35.5 µM. The TGI [25] was 31.7 µM, the TGI [26] was 32.7 µM and the TGI [27] was 26.7 µM. For the same compound, the TGI [28] was 26.4 µM, the TGI [29] was 29.7 µM and the TGI [30] was 35.4 µM. For the same compound, the TGI [31] was 54.9 µM, the TGI [32] was 43.2 µM and the TGI [33] was 77.3 µM. It also gave a TGI [34] of 52.7 µM, a TGI [35] of 56.7 µM and a TGI [36] of 39.7 µM. The TGI [37] was 54.7 µM, the TGI [38] was 30.1 µM and the TGI [39] was 33.7 µM. For the same compound, the TGI [40] was 73.6 µM, the TGI [41] was greater than 10 µM and the TGI [42] was 93.9 µM. For the same compound, the TGI [43] was 40.9 µM, the TGI [44] was 80.6 µM and the TGI [45] was 42.4 µM. It also gave a TGI [46] of 39.1 µM, a TGI [47] greater than 10 µM and a TGI [48] of 31.9 µM. For the same compound, the TGI [49] was 43.9 µM, the TGI [50] was 56.7 µM and the TGI [51] was greater than 10 µM. The TGI [52] was 34.5 µM, the TGI [53] was 37.2 µM and the TGI [54] was greater than 10 µM. It also gave a TGI [55] of 29.2 µM, a TGI [56] of 33.5 µM and a TGI [57] of 36 µM.

Work on `CCCCCCCCCCC(O)CCCCCCC(=O)O` (stereo not drawn) yielded a TGI [1] of 31.1 µM, a TGI [2] greater than 100 µM and a TGI [3] greater than 100 µM. The TGI [58] was 98 µM, the TGI [4] was 41.9 µM and the TGI [5] was 93.3 µM. The TGI [6] was 41.7 µM, the TGI [7] was greater than 100 µM and the TGI [8] was 54 µM. The TGI [9] was 71 µM, the TGI [10] was greater than 100 µM and the TGI [11] was 37.3 µM. For the same compound, the TGI [12] was 63 µM, the TGI [13] was 45.3 µM and the TGI [14] was 40.6 µM. For the same compound, the TGI [15] was 59.7 µM, the TGI [16] was 45.8 µM and the TGI [17] was 50.7 µM. The TGI [18] was greater than 100 µM, the TGI [20] was 44.3 µM and the TGI [21] was greater than 100 µM. For the same compound, the TGI [22] was 34.5 µM, the TGI [24] was 55.6 µM and the TGI [25] was greater than 100 µM. For the same compound, the TGI [26] was 31.1 µM, the TGI [27] was 29.9 µM and the TGI [28] was 33.3 µM. It also gave a TGI [29] of 46.1 µM, a TGI [30] greater than 100 µM and a TGI [31] greater than 100 µM. The TGI [32] was 54.7 µM, the TGI [33] was greater than 100 µM and the TGI [34] was 32.4 µM. For the same compound, the TGI [35] was 39.1 µM, the TGI [36] was 59.5 µM and the TGI [37] was 34.6 µM. For the same compound, the TGI [38] was 67.3 µM, the TGI [39] was greater than 100 µM and the TGI [40] was 25.6 µM. For the same compound, the TGI [41] was 88.9 µM, the TGI [42] was 28.2 µM and the TGI [43] was 31.6 µM. For the same compound, the TGI [44] was greater than 100 µM, the TGI [45] was 30 µM and the TGI [46] was 86.5 µM. For the same compound, the TGI [47] was greater than 100 µM, the TGI [48] was greater than 100 µM and the TGI [49] was greater than 100 µM. It also gave a TGI [50] of 91.3 µM, a TGI [51] greater than 100 µM and a TGI [52] of 56.2 µM. For the same compound, the TGI [53] was 62.5 µM, the TGI [54] was greater than 100 µM and the TGI [55] was greater than 100 µM. It also gave a TGI [56] of 39.1 µM and a TGI [57] of 80.8 µM.

Reference: PubChem BioAssay (NCI)
